Results taken from patent US20090029992A1, “SUBSTITUTED PYRAZOLE COMPOUNDS” (priority 2007, published 2009).

Tests used:
HCT116 cells = experiment: Whole cell cytotoxicity assay, Sulforhodamine B; format: cell-based; conditions: Homo sapiens, HCT-116; HCT116, 96 hours incubation, SRB; read-out: GI50 HCT116 cell growth
Method in brief: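 HCT116 cells (500/well) in DMEM/10% FBS/2 mM glutamine were preincubated 24 h, then exposed to compound for 96 h at 37 °C, 5% CO2, in duplicate. Cells were fixed with TCA and stained with sulforhodamine B (A570). GI50, TGI and LC50 were derived relative to a time-zero plate and an untreated control.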

Aurora B kinase = target: T1, Aurora B kinase (Homo sapiens, UniProt Q96GD4); experiment: Aurora B (Aurora 1) inhibition assay; format: biochemical; conditions: ATP 50 μM, 16 h
T1 construct: purchased BPS Biosciences, San Diego, Calif
T1 sequence (Q96GD4 whole entry): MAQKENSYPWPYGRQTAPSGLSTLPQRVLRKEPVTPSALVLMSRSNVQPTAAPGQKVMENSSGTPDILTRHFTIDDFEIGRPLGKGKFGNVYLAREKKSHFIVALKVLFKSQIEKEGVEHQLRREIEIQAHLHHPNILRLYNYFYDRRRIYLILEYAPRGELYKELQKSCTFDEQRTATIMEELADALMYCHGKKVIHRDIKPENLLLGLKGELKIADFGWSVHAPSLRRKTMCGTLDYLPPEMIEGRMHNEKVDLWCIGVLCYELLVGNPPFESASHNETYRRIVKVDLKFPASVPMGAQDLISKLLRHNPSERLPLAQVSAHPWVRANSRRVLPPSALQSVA
Procedure: Compounds were tested for their potency against recombinant Aurora A (Upstate, Lake Placid, N.Y.) using the PanVera Z′-Lyte kinase assay kit—Ser/Thr 1 peptide (Invitrogen, Carlsbad, Calif.). Assays were carried out in kinase assay buffer (50 mM HEPES, pH 7.5, 10 mM MgCl2, 5 mM EGTA, 0.05% Brij-35, 2 mM DTT). Test compounds were initially dissolved in DMSO at 100× the highest tested concentration, then serially diluted to 4× test concentrations in kinase assay buffer. Next, Aurora A (final concentration 200-500 ng/mL), Z′-Lyte Ser/Thr 1 peptide (final concentration 2 μM) and ATP (final concentration 10 μM) were added according to the manufacturer's instructions. Assays were carried out in half-area 96-well white polystyrene assay plates (Corning, Corning, N.Y.) in a final volume of 20 μl. The reaction was allowed to proceed for 1 h at room temperature in the dark, at which point the development reagent and stop reagent were added according to the manufacturer's instructions. Coumarin (Ex. 400 nm, Em. 465 nm) and fluorescein (Ex. 400 nm, Em. 565 nm) fluorescence values were measured on a SpectraFluor Plus plate reader (Tecan, Durham, N.C.). The emission ratio (coumarin/fluorescein) was determined and used to calculate the percent phosphorylation for each well. Wells containing substrate but no kinase and wells containing a phosphopeptide control were used to set 0% and 100% phosphorylation values, respectively. Typically 20-40% of the substrate was phosphorylated in wells without inhibitor. Dose-response curves of relative Aurora A activity vs. inhibitor concentration were plotted with Grafit (Erithacus Software, Horley, Surrey, UK).
Assays for Aurora B kinase inhibition were carried out similarly to those for Aurora A kinase (see above) with the following modifications. Aurora B kinase (BPS Biosciences, San Diego, Calif.) was used as the enzyme, at a concentration was 2.5 μg/mL. The ATP concentration was 50 μM, and the kinase reaction was allowed to proceed for 16 h. Sodium orthovanadate (20 μM) was added to the buffer to inhibit contaminating phosphatases.

recombinant Aurora A = target: T2, recombinant Aurora A (Homo sapiens, UniProt O14965); experiment: Aurora A (Aurora 2) inhibition assay, Z'-Lyte kinase assay; format: biochemical; conditions: ATP 10 μM, 1 h
T2 construct: purchased Upstate, Lake Placid, N.Y
T2 sequence (O14965 1-403): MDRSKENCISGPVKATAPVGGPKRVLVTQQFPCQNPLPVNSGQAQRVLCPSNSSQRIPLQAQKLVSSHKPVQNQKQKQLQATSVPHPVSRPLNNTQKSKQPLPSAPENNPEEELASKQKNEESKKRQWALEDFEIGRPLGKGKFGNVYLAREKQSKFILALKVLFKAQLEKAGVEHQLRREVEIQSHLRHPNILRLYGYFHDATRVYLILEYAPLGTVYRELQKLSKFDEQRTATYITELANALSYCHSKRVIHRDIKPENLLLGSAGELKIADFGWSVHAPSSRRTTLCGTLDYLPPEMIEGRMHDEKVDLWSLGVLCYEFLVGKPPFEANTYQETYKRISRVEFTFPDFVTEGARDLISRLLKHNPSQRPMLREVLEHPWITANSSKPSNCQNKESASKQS
Method in brief: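 Z'-Lyte FRET assay: Aurora A (200-500 ng/mL final), Ser/Thr 1 peptide (2 μM) and ATP (10 μM) in 50 mM HEPES pH 7.5, 10 mM MgCl2, 5 mM EGTA, 0.05% Brij-35, 2 mM DTT, 1 h at room temperature. Coumarin/fluorescein emission ratio converted to percent phosphorylation; dose-response curves plotted.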

IC50 (Aurora B kinase): ≤ 1000 nM | IC50 (recombinant Aurora A): ≤ 100 nM
SMILES: COc1cc(OC)cc(-c2nc(Nc3cc(C)[nH]n3)cc(N3CCN(C)CC3)n2)c1 [Example 191, 2-(3,5-dimethoxyphenyl)-N-(5-methyl-1H-pyrazol-3-yl)-6-(4-methylpiperazin-1-yl)pyrimidin-4-amine]
GI50 (HCT116 cells): ≤ 1000 nM
